This is an account of results in US20100267728A1, “3-SUBSTITUTED-1,2,3-TRIAZIN-4-ONE'S AND 3 SUBSTITUTED 1,3-PYRIMIDINONE'S FOR ENHANCING GLU[…] RESPONSES” (CORTEX PHARMACEUTICALS, INC., priority 2007, published 2010).

Data set [1] concerns AMPA receptor. In words: In vitro patch clamp electrophysiology assay: glutamate-induced whole-cell current in cultured cortical neurons. The data set is classed as cell-based. The settings on record: rat cortical neurons, 500 μM glutamate. The procedure: Cortical cells were prepared from day 18-19 embryonic Sprague-Dawley rats and recorded after 3 days in culture. The extracellular solution (ECS) contained (in mM): NaCl (145), KCl (5.4), HEPES (10), MgCl2 (0.8), CaCl2 (1.8), glucose (10), sucrose (30); pH. 7.4. In order to block the voltage-gated sodium currents, 40 nM TTX was added to the recording solution. The intracellular solution contained (in mM): K-gluconate (140), HEPES (20), EGTA (1.1), phosphocreatine (5), MgATP (3), GTP (0.3), MgCl2 (5), and CaCl2 (0.1); pH: 7.2. All test compound and glutamate solutions were made-up in the extracellular solution.
The whole-cell current was measured with patch-clamp amplifier (Axopatch 200B), filtered at 2 kHz, digitized at 5 kHz and recorded on a PC with pClamp 8. The cells were voltage-clamped at −80 mV. Solutions were applied by DAD-12 system. A baseline response for each cell was recorded using a 1 s pulse of 500 μM glutamate dissolved in ECS. Responses to test compound were then determined by application of a 10 s pulse of test compound followed by a 1 s pulse of the same concentration of test compound plus 500 μM glutamate and then 10 s of saline. This pulse sequence was repeated until a stable reading was obtained, or until sufficient data points were measured to allow extrapolation to a calculated maximum change.
The mean value of plateau current between 600 ms to 900 ms after application of glutamate or test compound plus glutamate was calculated and used as the parameter to measure the drug effect. The plateau responses in the presence of varying concentrations of test compound were divided by the baseline response in order to calculate the percentage increase. Compounds are deemed active in this test if, at a test concentration of 3 μM or less, they produce a greater than 100% increase in the value of the steady-state current measured due to application of glutamate alone. The concentration at which the glutamate induced current is increased by 100% is commonly referred to as the EC2x value.
(In general: The patch-clamp technique gives a direct electrical read-out from membranes.)

Data set [2] has as its system AMPA receptor. As to the kind of experiment: Rat hippocampal slice assay: field EPSP amplitude in CA1. The data set is classed as cell-based. The procedure: In another test, excitatory responses (field EPSPs) were measured in hippocampal slices, which were maintained in a recording chamber continuously perfused with artificial cerebrospinal fluid (ACSF). During a 15-30 minute interval, the perfusion medium was switched to one containing various concentrations of the test compounds. Responses collected immediately before and at the end of drug perfusion were superimposed in order to calculate the percent increase in EPSP amplitude.
To obtain data for the activity of invention compounds on synaptic responses, a bipolar nichrome stimulating electrode was positioned in the dendritic layer (stratum radiatum) of the hippocampal subfield CA1 close to the border of subfield CA3. Current pulses (0.1 msec) through the stimulating electrode activate a population of the Schaffer-commissural (SC) fibers, which arise from neurons in the subdivision CA3 and terminate in synapses on the dendrites of CA1 neurons. Activation of these synapses causes them to release the transmitter glutamate. Glutamate binds to post-synaptic AMPA receptors, which then transiently open an associated ion channel and permit a sodium current to enter the postsynaptic cell. This current results in a voltage in the extracellular space (the field EPSP), which is recorded by a high impedance recording electrode positioned in the middle of the stratum radiatum of CA1.
The intensity of the stimulation current was adjusted to produce half-maximal EPSPs (typically about 1.5-2.0 mV). Paired stimulation pulses were given every 40 sec with an interpulse interval of 200 msec, as described further in Example 30.
Hippocampal slices were maintained in a recording chamber continuously perfused with artificial cerebrospinal fluid (ACSF). During 15-30 minute intervals, the perfusion medium was switched to one containing various concentrations of the test compounds. Responses collected immediately before and at the end of drug perfusion were superimposed in order to calculate the percent increase in EPSP amplitude.
To conduct these tests, the hippocampus was removed from anesthetized, 2 month old Sprague-Dawley rats and in vitro slices (400 μm thick) were prepared and maintained in an interface chamber at 35° C. using conventional techniques [see, for example, Dunwiddie and Lynch, J. Physiol. 276: 353-367 (1978)]. The chamber was constantly perfused at 0.5 mL/min with ACSF containing (in mM): NaCl 124, KCl 3, KH2PO4 1.25, MgSO4 2.5, CaCl2 3.4, NaHCO3 26, glucose 10 and L-ascorbate 2. A bipolar nichrome stimulating electrode was positioned in the dendritic layer (stratum radiatum) of the hippocampal subfield CA1 close to the border of subfield CA3.
Current pulses (0.1 msec) through the stimulating electrode activate a population of the Schaffer-commissural (SC) fibers, which arise from neurons in the subdivision CA3 and terminate in synapses on the dendrites of CA1 neurons. Activation of these synapses causes them to release the transmitter glutamate. Glutamate binds to the post-synaptic AMPA receptors, which then transiently open an associated ion channel and permit a sodium current to enter the postsynaptic cell. This current results in a voltage in the extracellular space (the field EPSP) which is recorded by a high impedance recording electrode positioned in the middle of the stratum radiatum of CA1. The intensity of the stimulation current was adjusted to produce half-maximal EPSPs (typically about 1.5-2.0 mV). Paired stimulation pulses were given every 40 s with an interpulse interval of 200 msec (see below). The field EPSPs of the second response were digitized and analyzed to determine amplitude. If the responses were stable for 15-30 min (baseline), test compounds were added to the perfusion lines for a period of about 15 min. The perfusion was then changed back to regular ACSF. […]

The test system of data set [3] is AMPA receptor. As to the kind of experiment: In vivo electrophysiology: field EPSP in dentate gyrus of anesthetized animals. Further details: species or system rat. How it is done:
Animals are maintained under anesthesia by phenobarbital administered using a Hamilton syringe pump. Stimulating and recording electrodes are inserted into the perforant path and dentate gyrus of the hippocampus, respectively. Once electrodes are implanted, a stable baseline of evoked responses are elicited using single monophasic pulses (100 μs pulse duration) delivered at 3/min to the stimulating electrode. Field EPSPs are monitored until a stable baseline is achieved (about 20-30 min), after which a solution of test compound in HPCD is injected intraperitoneally and evoked field potentials are recorded. Evoked potentials are recorded for approximately 2 h following drug administration or until the amplitude of the field EPSP returns to baseline. In the latter instance, it is common that an iv administration is also carried out with an appropriate dose of the same test compound.

Molecules are shown by their SMILES.

Molecule `CCC(Cn1ccnn1)n1cnc2cc3c(=O)n(C4CC4)nnc3cc2c1=O` (stereo not shown) yielded a melting point of 215 to 217 °C. On the same count and under the same terms, with `C#CCn1nnc2cc3c(=O)n(C(C)Cn4ncnn4)cnc3cc2c1=O` (stereo not shown) the figure was 222 to 223 °C; with `CCC(Cn1nccn1)n1cnc2cc3c(=O)n(C4CC4)nnc3cc2c1=O` (stereo not shown), 129 to 130 °C. As for `C[C@H](Cn1cnnn1)n1nnc2cc3c(=O)n([C@H](C)Cn4ncnn4)nnc3cc2c1=O`, the melting point was in the range of 160 to 161 °C. Take `C[C@H](Cn1ncnn1)n1nnc2cc3c(=O)n([C@H](C)Cn4ncnn4)nnc3cc2c1=O` [Example 80, 3,8-Bis[(2R)-1-(2H-tetrazol-2-yl)propan-2-yl]-3,8-dihydrobenzo[1,2-d:4,5-d′]bis[1,2,3]triazine-4,9-dione]: the “In vitro Patch Clamp Electrophysiology EC2x (concentration at which the glutamate induced current is increased by 100%)” value in data set [1] turned out to be 0.016 μM. The “% increase in the amplitude of the field EPSP in the CA1 region of rat hippocampal slice” value (“% increase … of rat hippocampal slice” below) in data set [2] (@ 3 μM) was determined as 65% @ 3 μM. In addition, the “% increase in the amplitude of the field EPSP in rat dentate gyrus” value (shortened to “% increase … in rat dentate gyrus”) in data set [3] (@ 1 mpk i.p.) is 59%^4.

Consider `C[C@H](Cn1ncnn1)n1nnc2cc3c(=O)n(CC#N)nnc3cc2c1=O` [Example 22, {4,9-Dioxo-8-[(2R)-1-(2H-tetrazol-2-yl)propan-2-yl]-8,9-dihydrobenzo[1,2-d:4,5-d′]bis[1,2,3]triazin-3(4H)-yl}acetonitrile], for which the “In vitro Patch Clamp Electrophysiology EC2x (concentration at which the glutamate induced current is increased by 100%)” value in data set [1] amounted to 0.24 μM. Also, the “% increase … of rat hippocampal slice” value in data set [2] (@ 3 μM) was 24% @ 3 μM. The “% increase … in rat dentate gyrus” value in data set [3] (@ 5 mpk i.p.) turned out to be 42%^3. Molecule `CC[C@H](Cn1cnnn1)n1cnc2cc3c(=O)n([C@H](CC)Cn4cnnn4)nnc3cc2c1=O` came in with a melting point of 80 to 81 °C. Molecule `CC[C@H](Cn1nnc(C)n1)n1cnc2cc3c(=O)n([C@H](C)Cn4ncnn4)nnc3cc2c1=O` returned a melting point of 140 to 141 °C. `C[C@H](Cn1ncnn1)n1nnc2cc3c(=O)n(C4CC4)nnc3cc2c1=O` [Example 1, 3-Cyclopropyl-8-[(1R)-1-methyl-2-(2H-tetrazol-2-yl)ethyl]-3,8-dihydro[1,2,3]triazino[4,5-g][1,2,3]-benzotriazine-4,9-dione]: the “In vitro Patch Clamp Electrophysiology EC2x (concentration at which the glutamate induced current is increased by 100%)” value in data set [1] is 0.28 μM. For the same molecule, in data set [2] (@ 3 μM), the “% increase … of rat hippocampal slice” value is recorded as 69% @ 3 μM. For the same molecule, the “% increase … in rat dentate gyrus” value in data set [3] (@ 5 mpk i.p.) worked out at 37%^3. With `C[C@H](Cn1ncnn1)n1cnc2cc3c(=O)n(C4CC4)nnc3cc2c1=O` [Example 53, 3-Cyclopropyl-8-[(2R)-1-(2H-tetrazol-2-yl)propan-2-yl]-3,8-dihydro[1,2,3]triazino[4,5-g]quinazoline-4,9-dione], in data set [1], the “In vitro Patch Clamp Electrophysiology EC2x (concentration at which the glutamate induced current is increased by 100%)” value was 0.60 μM. The “% increase … of rat hippocampal slice” value in data set [2] (@ 10 μM) was found to be 55% @ 10 μM. Besides, the “% increase … in rat dentate gyrus” value in data set [3] (@ 5 mpk i.p.) is reported as 33%^3. Molecule `CCC(Cn1ncnn1)n1cnc2cc3c(=O)n(C4CC4)nnc3cc2c1=O` (stereo not shown) gave a melting point of 160 to 161 °C. Take `CC(Cn1ncnn1)n1nnc2cc3c(=O)n(C(C)Cn4ncnn4)nnc3cc2c1=O` (stereo not shown): the melting point lay in the range of 223 to 226 °C. `C[C@H](Cn1cncn1)n1nnc2cc3c(=O)n(C4CC4)nnc3cc2c1=O`: the melting point was 195 to 199 °C. `CC[C@H](Cn1nnnc1C)n1cnc2cc3c(=O)n([C@H](C)Cn4ncnn4)nnc3cc2c1=O` returned a melting point of 238 to 240 °C. For the molecule `C[C@H](Cn1ncnn1)n1nnc2cc3c(=O)n(C)nnc3cc2c1=O` [Example 4, 3-Methyl-8-[(2R)-1-(2H-tetrazol-2-yl)propan-2-yl]-3,8-dihydrobenzo[1,2-d:4,5-d′]bis[1,2,3]triazine-4,9-dione], the “In vitro Patch Clamp Electrophysiology EC2x (concentration at which the glutamate induced current is increased by 100%)” value in data set [1] was determined as 0.28 μM. Moreover, the “% increase … of rat hippocampal slice” value in data set [2] (@ 3 μM) amounted to 18% @ 3 μM. The “% increase … in rat dentate gyrus” value in data set [3] (@ 5 mpk i.p.) is given as 46%^3. For the molecule `COCCn1nnc2cc3c(=O)n([C@H](C)Cn4ncnn4)nnc3cc2c1=O` [Example 18, 3-(2-Methoxyethyl)-8-[(2R)-1-(2H-tetrazol-2-yl)propan-2-yl]-3,8-dihydrobenzo[1,2-d: 4,5-d′]bis[1,2,3]triazine-4,9-dione], the “% increase … of rat hippocampal slice” value in data set [2] (@ 10 μM) came to 35% @ 10 μM. In data set [3] (@ 5 mpk i.p.), the “% increase … in rat dentate gyrus” value is on record as 34%^3. `CC(Cn1cccn1)n1nnc2cc3c(=O)n(C4CC4)nnc3cc2c1=O` (stereo not shown) registered a melting point of 178 to 180 °C.

In turn, `C#CCn1nnc2cc3c(=O)n(C(C)Cn4cnnn4)cnc3cc2c1=O` (stereo not shown) yielded a melting point of 218 to 219 °C. `CC(Cn1cnnn1)n1nnc2cc3c(=O)n(C(C)Cn4ncnn4)nnc3cc2c1=O` (stereo not shown): the melting point lay within 204 to 206 °C. On the same count and under the same terms, with `CC(Cn1cnnn1)n1cnc2cc3c(=O)n(C4CC4)nnc3cc2c1=O` (stereo not shown) the figure was 245 to 246 °C; with `C[C@H](Cn1cccn1)n1cnc2cc3c(=O)n([C@H](C)Cn4cc(Cl)cn4)cnc3cc2c1=O`, 231 to 232 °C; with `CC[C@H](Cn1cnnn1)n1cnc2cc3c(=O)n([C@H](C)Cn4ncnn4)nnc3cc2c1=O`, 198 to 200 °C.

`CCC(Cn1cnnn1)n1cnc2cc3c(=O)n(C4CC4)nnc3cc2c1=O` (stereo not shown) had a melting point of 213 to 214 °C.

A word on the melting point: it is the temperature of the solid-liquid transition.
